The source of these data is patent US20050171358A1 (priority 2002, published 2005).

Molecules are shown by their SMILES.

One assay relates to Phytophthora infestans. The class given is in vivo. Conditions: 125 ppm, 200 L/10 a spray on tomato (5 leaf stage), inoculated next day; diseased area rates of third to fifth true leaves after 3 days in green house, graded by Table 5.
In assay [1] the test system is Pseudoperonospora cubensis. Kind of assay: Effect test for cucumber downy mildew (Evaluation Example 4). The assay is classed as in vivo. Conditions: 125 ppm, 200 L/10 a spray on cucumber (3 leaf stage), inoculated next day; diseased area rates of first and second true leaves after 3 days in green house, graded by Table 5. How it is done: The active ingredient compound was diluted with water containing 0.01% Tween 20 to have a concentration of 125 ppm. […] Next day, a zoosporangium suspension of Pseudoperonospora cubensis which was the causative fungus of cucumber downy mildew was sprayed to inoculate.

Assay [2] deals with Colletotrichum lagenarium. Conditions: 200 ppm spray on cucumber (3 leaf stage), inoculated next day; lesion numbers on first and second leaves after 7 days in green house, graded by Table 5.
The subject of another assay is Pyricularia oryzae. The assay is classed as in vivo. Conditions: 200 ppm spray on rice (Koshihikari, 3 leaf stage), inoculated next day; lesion numbers on third leaves after 7 days in green house, graded by Table 5.

`COc1ccc(C(=O)NCc2cc(CN3Cc4ccccc4C3)no2)cc1`: the “Evaluation (effect for tomato late blight)” value with Phytophthora infestans is on record as 1 (21˜41).
On to `O=C(COc1ccccc1)NCc1cc(CCl)no1` [I-65, N-[(3-chloromethyl-5-isoxazolyl)methyl]phenoxyacetamide], for which, in the assay on Phytophthora infestans, the “Evaluation (effect for tomato late blight)” value is given as 4 (1˜5). The “Evaluation (effect for cucumber downy mildew)” value in assay [1] was 2 (11˜20).
As for `O=C(Cc1ccccc1)NCc1cc(CCl)no1` [I-67, N-[(3-chloromethyl-5-isoxazolyl)methyl]phenylacetamide], the “Evaluation (effect for tomato late blight)” value in the assay on Phytophthora infestans is on record as 2 (11˜20).
With `O=C(NCc1cc(CCl)no1)NC1CCCC1` [II-107, 3-(3-chloromethyl-5-isoxazolyl)methyl-1-cyclopentylurea], the “Evaluation (effect for tomato late blight)” value with Phytophthora infestans was 4 (1˜5). For the same compound, in assay [1], the “Evaluation (effect for cucumber downy mildew)” value is given as 2 (11˜20).
With `O=C(NCc1cc(CBr)no1)NC1CCCCC1` [II-111, 3-(3-bromomethyl-5-isoxazolyl)methyl-1-cyclohexylurea], the “Evaluation (effect for tomato late blight)” value in the assay with Phytophthora infestans is 5 (0). Also, in assay [1], the “Evaluation (effect for cucumber downy mildew)” value was 3 (6˜10).
Turning to `COc1ccc(C(=O)NCc2cc(CCl)no2)cc1` [III-3, N-[(3-chloromethyl-5-isoxazolyl)methyl]-4-methoxy benzamide], the “Evaluation (effect for tomato late blight)” value in the assay on Phytophthora infestans is given as 2 (11˜20). Besides, the “Evaluation (effect for cucumber downy mildew)” value in assay [1] is 4 (1˜5).
In the case of `Cc1ccc(-c2cc(CNC(=O)N3CCOCC3)on2)cc1` [III-204, N-{[3-(4-tolyl)-5-isoxazolyl]methyl}-4-morpholinecarboxamide], in assay [2], the “Evaluation (effect for cucumber anthracnose)” value is given as 2 (11˜20). Besides, the “Evaluation (effect for rice blast)” value in the assay on Pyricularia oryzae was 2 (11˜20). Moreover, the “Evaluation (effect for cucumber downy mildew)” value in assay [1] is on record as 4 (1˜5).
On to `Cc1ccc(-c2cc(CNC(=O)C3CCCCC3)on2)cc1` [III-222, N-{[3-(4-tolyl)-5-isoxazolyl]methyl}cyclohexanecarboxamide], for which, in assay [2], the “Evaluation (effect for cucumber anthracnose)” value is on record as 2 (11˜20). For the same compound, in the assay on Pyricularia oryzae, the “Evaluation (effect for rice blast)” value is reported as 3 (6˜10). Also, in assay [1], the “Evaluation (effect for cucumber downy mildew)” value is on record as 4 (1˜5).
Take `O=C(NCc1cc(CCl)no1)C1CCCCC1` [III-233, N-[(3-chloromethyl-5-isoxazolyl)methyl]cyclohexanecarboxamide]: the “Evaluation (effect for tomato late blight)” value in the assay with Phytophthora infestans is recorded as 2 (11˜20).
`O=C(NCc1cc(CCl)no1)c1ccc(Br)cc1` [III-260, N-[(3-chloromethyl-5-isoxazolyl)methyl]-4-bromobenzamide]: the “Evaluation (effect for tomato late blight)” value with Phytophthora infestans is 3 (6˜10).
On to `O=C(NCc1cc(CCl)no1)c1ccc(C(F)(F)F)cc1` [III-261, N-[(3-chloromethyl-5-isoxazolyl)methyl]-4-trifluoromethylbenzamide], for which the “Evaluation (effect for tomato late blight)” value in the assay on Phytophthora infestans is 2 (11˜20).
Same read-out and setting: the figure for `O=C(C=Cc1ccccc1)NCc1cc(CCl)no1` [III-266, N-[(3-chloromethyl-5-isoxazolyl)methyl]-β-phenylacrylamide] is 1 (21˜41); for `O=C(NCc1cc(CCl)no1)c1cccc2ccccc12` [III-268, N-[(3-chloromethyl-5-isoxazolyl)methyl]-1-naphthalenecarboxamide] it is 0 (41 or more).
For `O=C(NCc1cc(CCl)no1)c1ccc(OCCl)cc1` [III-270, N-[(3-chloromethyl-5-isoxazolyl)methyl]-4-chloromethyloxybenzamide], the “Evaluation (effect for tomato late blight)” value with Phytophthora infestans is 2 (11˜20).
As to `O=C(NCc1cc(CCl)no1)c1ccc(Cl)cc1Cl` [III-271, N-[(3-chloromethyl-5-isoxazolyl)methyl]-2,4-dichlorobenzamide], the “Evaluation (effect for tomato late blight)” value with Phytophthora infestans was 1 (21˜41).
On to `Cc1ccccc1C(=O)NCc1cc(CCl)no1` [III-273, N-[(3-chloromethyl-5-isoxazolyl)methyl]-2-methylbenzamide], for which the “Evaluation (effect for tomato late blight)” value in the assay with Phytophthora infestans is given as 0 (41 or more).
Take `COc1ccc(C(=O)NCc2cc(C(=O)Nc3ccccc3Cl)no2)cc1` [IV-96, N-{[3-(2-chlorophenyl)aminocarbonyl-5-isoxazolyl]methyl}-4-methoxybenzamide]: the “Evaluation (effect for cucumber anthracnose)” value in assay [2] was 4 (1˜5). Besides, the “Evaluation (effect for rice blast)” value in the assay on Pyricularia oryzae is 4 (1˜5).
Turning to `COc1ccc(C(=O)NCc2cc(C(=O)Nc3ccc(C#N)cc3)no2)cc1` [IV-97, N-{[3-(4-cyanophenyl)aminocarbonyl-5-isoxazolyl]methyl}-4-methoxybenzamide], the “Evaluation (effect for cucumber anthracnose)” value in assay [2] is recorded as 5 (0). Moreover, the “Evaluation (effect for rice blast)” value in the assay with Pyricularia oryzae is listed as 5 (0).
With `O=C(/C=C/c1ccccc1)NCc1cc(COc2ccccc2)no1` [IV-99, N-[(3-phenoxymethyl-5-isoxazolyl)methyl]-β-phenylacrylamide], the “Evaluation (effect for cucumber anthracnose)” value in assay [2] was 4 (1˜5). The “Evaluation (effect for rice blast)” value in the assay with Pyricularia oryzae was 4 (1˜5).
With `COc1ccc(C(=O)NCc2cc(C(=O)Nc3cccc(Cl)c3)no2)cc1` [IV-105, N-{[3-(3-chlorophenyl)aminocarbonyl-5-isoxazolyl]methyl}-4-methoxybenzamide], in assay [2], the “Evaluation (effect for cucumber anthracnose)” value is 3 (6˜10). Further, in the assay on Pyricularia oryzae, the “Evaluation (effect for rice blast)” value is listed as 3 (6˜10).
For `COc1ccc(C(=O)NCc2cc(C(=O)Nc3ccc(F)cc3F)no2)cc1` [IV-107, N-{[3-(2,4-difluorophenyl)aminocarbonyl-5-isoxazolyl]methyl}-4-methoxybenzamide], the “Evaluation (effect for cucumber anthracnose)” value in assay [2] was 5 (0). Also, the “Evaluation (effect for rice blast)” value with Pyricularia oryzae is on record as 5 (0).
With `COc1ccc(C(=O)NCc2cc(C(=O)Nc3ccc(C)cc3)no2)cc1` [IV-108, N-{[3-(4-tolyl)aminocarbonyl-5-isoxazolyl]methyl}-4-methoxybenzamide], in assay [2], the “Evaluation (effect for cucumber anthracnose)” value is 2 (11˜20). Besides, the “Evaluation (effect for rice blast)” value in the assay on Pyricularia oryzae is 2 (11˜20).
`COc1ccc(C(=O)NCc2cc(C#Cc3ccccc3)no2)cc1` [IV-110, N-[(3-phenylethynyl-5-isoxazolyl)methyl]-4-methoxybenzamide]: in assay [2], the “Evaluation (effect for cucumber anthracnose)” value was 5 (0). Also, the “Evaluation (effect for rice blast)” value in the assay with Pyricularia oryzae is recorded as 5 (0).
Consider `COCc1cc(CNC(=O)c2ccc(OC)cc2)on1` [IV-111, N-[(3-methoxymethyl-5-isoxazolyl)methyl]-4-methoxybenzamide], for which the “Evaluation (effect for cucumber anthracnose)” value in assay [2] is 3 (6˜10). Besides, the “Evaluation (effect for rice blast)” value in the assay with Pyricularia oryzae is recorded as 3 (6˜10).
Regarding `COc1ccc(C(=O)NCc2cc(C(=O)Nc3ccccc3C#N)no2)cc1` [IV-112, N-{[3-(2-cyanophenyl)aminocarbonyl-5-isoxazolyl]methyl}-4-methoxybenzamide], the “Evaluation (effect for cucumber anthracnose)” value in assay [2] is 3 (6˜10). Further, in the assay with Pyricularia oryzae, the “Evaluation (effect for rice blast)” value is recorded as 2 (11˜20).
For `O=C(NCc1cc(C(=O)Nc2ccccc2)no1)c1ccccc1` [IV-113, N-[(3-phenylaminocarbonyl-5-isoxazolyl)methyl]benzamide], in that order: 4 (1˜5) and 4 (1˜5).
On to `O=C(NCc1cc(C(=O)Nc2ccccc2)no1)c1ccc(Cl)cc1` [IV-114, N-[(3-phenylaminocarbonyl-5-isoxazolyl)methyl]-4-chlorobenzamide], for which the “Evaluation (effect for cucumber anthracnose)” value in assay [2] is listed as 5 (0). The “Evaluation (effect for rice blast)” value in the assay with Pyricularia oryzae was 5 (0).
`Cc1ccc(C(=O)NCc2cc(C(=O)Nc3ccccc3)no2)cc1` [IV-115, N-[(3-phenylaminocarbonyl-5-isoxazolyl)methyl]-4-methylbenzamide]: the “Evaluation (effect for cucumber anthracnose)” value in assay [2] is reported as 5 (0). For the same compound, the “Evaluation (effect for rice blast)” value with Pyricularia oryzae is reported as 5 (0).
Consider `Cc1cccc(C(=O)NCc2cc(C(=O)Nc3ccccc3)no2)c1` [IV-116, N-[(3-phenylaminocarbonyl-5-isoxazolyl)methyl]-3-methylbenzamide], for which the “Evaluation (effect for cucumber anthracnose)” value in assay [2] is on record as 4 (1˜5). Further, in the assay on Pyricularia oryzae, the “Evaluation (effect for rice blast)” value was 5 (0).
As for `Cc1ccccc1C(=O)NCc1cc(C(=O)Nc2ccccc2)no1` [IV-117, N-[(3-phenylaminocarbonyl-5-isoxazolyl)methyl]-2-methylbenzamide], the “Evaluation (effect for cucumber anthracnose)” value in assay [2] is recorded as 4 (1˜5). For the same compound, in the assay with Pyricularia oryzae, the “Evaluation (effect for rice blast)” value is reported as 4 (1˜5).
For the compound `COc1ccc(C(=O)NCc2cc(C(=O)NC(C)(C)C)no2)cc1` [IV-119, N-[(3-tert-butylaminocarbonyl-5-isoxazolyl)methyl]-4-methoxybenzamide], in assay [2], the “Evaluation (effect for cucumber anthracnose)” value was 3 (6˜10). The “Evaluation (effect for rice blast)” value in the assay on Pyricularia oryzae is 2 (11˜20).
Take `COc1ccc(C(=O)NCc2cc(C(=O)NC3CCCC3)no2)cc1` [IV-120, N-[(3-cyclopentylaminocarbonyl-5-isoxazolyl)methyl]-4-methoxybenzamide]: the “Evaluation (effect for cucumber anthracnose)” value in assay [2] is listed as 2 (11˜20). Besides, the “Evaluation (effect for rice blast)” value in the assay with Pyricularia oryzae is on record as 3 (6˜10).
On the same counts, the results for `O=C(NCc1cc(COc2ccccc2)no1)C1CCCCC1` [IV-121, N-[(3-phenoxymethyl-5-isoxazolyl)methyl)cyclohexanecarboxamide] are 4 (1˜5) and 4 (1˜5).
On the same counts, the results for `O=C(NCc1cc(COc2ccccc2)no1)c1cc(Cl)nc(Cl)c1` [IV-122, N-[(3-phenoxymethyl-5-isoxazolyl)methyl]-2,6-dichloropyridine-4-carboxamide] are 2 (11˜20) and 3 (6˜10).
In the case of `COc1ccc(C(=O)NCc2cc(/C=N/OCc3ccccc3)no2)cc1` [IV-124, N-[(3-benzyloxyiminomethyl-5-isoxazolyl)methyl]-4-methoxybenzamide], in assay [2], the “Evaluation (effect for cucumber anthracnose)” value was 5 (0). For the same compound, the “Evaluation (effect for rice blast)” value in the assay on Pyricularia oryzae is on record as 5 (0).
